US20060106106A1, “Beta-hydroxyphenylalkylamines and their use for treating glaucoma” (priority 2002, published 2006)
Where a name gives a salt, the structure may show the parent alone.

What was measured:
5-HT2A [1] = biological target: T1, 5-HT2A (Rattus norvegicus, UniProt P14842); experiment: 5-HT2 Functional Assay: [Ca2+]i Mobilization (FLIPR) in A7r5 cells; type: cell-based; conditions: for Emax: A7r5 cells, FLIPR, percentage of maximum 5-HT-induced response, read-out: 5-HT2A % Emax (Ca+2 Assay)
T1 construct: [^3H]myo-inositol-labeled A7r5 rat vascular smooth muscle cells; endogenous in cells; host or cells: A7r5 rat vascular smooth muscle cells
T1 sequence (P14842 whole entry): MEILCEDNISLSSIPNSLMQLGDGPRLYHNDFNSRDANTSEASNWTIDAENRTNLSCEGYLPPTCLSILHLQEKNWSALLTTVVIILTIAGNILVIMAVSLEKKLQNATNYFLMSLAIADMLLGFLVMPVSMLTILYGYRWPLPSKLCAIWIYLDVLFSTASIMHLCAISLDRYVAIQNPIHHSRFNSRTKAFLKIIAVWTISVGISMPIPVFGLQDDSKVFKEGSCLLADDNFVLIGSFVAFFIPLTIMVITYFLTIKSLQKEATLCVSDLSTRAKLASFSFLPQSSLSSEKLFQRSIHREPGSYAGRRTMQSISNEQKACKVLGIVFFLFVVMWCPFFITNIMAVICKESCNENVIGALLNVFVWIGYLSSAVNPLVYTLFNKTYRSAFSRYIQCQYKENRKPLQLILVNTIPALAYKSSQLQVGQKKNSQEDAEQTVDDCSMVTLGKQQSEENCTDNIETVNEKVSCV
Protocol: 5-HT2 Functional Assay: [Ca^2+]i Mobilization
The receptor-mediated mobilization on intracellular calcium ([Ca^2+]i) was studied using the Fluorescence Imaging Plate Reader (FLIPR) instrument. Rat vascular smooth muscle cells, A7r5, were grown in a normal media of DMEM/10% FBS and 10 μg/mL gentamycin. Confluent cell monolayers were trypsinized, pelleted, and re-suspended in normal media. Cells were seeded in a 50 μL volume at a density of 20,000 cells/well in a black wall, 96-well tissue culture plate and grown for 2 days.
On the day of the experiment, one vial of FLIPR Calcium Assay Kit dye was re-suspended in 50 mL of a FLIPR buffer consisting of Hank's Balanced Salt Solution (HBSS), 20 mM HEPES, and 2.5 mM probenecid, pH 7.4. Cells were loaded with the calcium-sensitive dye by addition of an equal volume (50 μL) to each well of the 96-well plate and incubated with dye for 1 h at 23° C.
Compounds were diluted 1:50 in 20% DMSO/20% Ethanol. For “hit” screening, compounds were further diluted 1:10 in FLIPR buffer and tested at a final concentration of 10 μM.
The compound plate and cell plate were placed in the FLIPR instrument. At the beginning of an experimental run, a signal test was performed to check the basal fluorescence signal from the dye-loaded cells and the uniformity of the signal across the plate. The basal fluorescence was adjusted between 8000-12000 counts by modifying the exposure time, the camera F-stop, or the laser power. Instrument settings for a typical assay were the following: laser power 0.3-0.6 W, camera F-stop F/2, and exposure time 0.4 sec. An aliquot (25 μL) of the test compound was added to the existing 100 μL dye-loaded cells at a dispensing speed of 50 μL/sec. Fluorescence data were collected in real-time at 1.0 sec intervals for the first 60 secs and at 6.0 sec intervals for an additional 120 secs. Responses were measured as peak fluorescence intensity minus basal and where appropriate were expressed as a percentage of a maximum 5-HT-induced response.

5-HT2A [2] = biological target: T1, 5-HT2A; experiment: 5-HT2 Functional Assay: Phosphoinositide (PI) Turnover Assay in A7r5 cells; type: cell-based; conditions: for Emax: A7r5 cells, relative to 5-HT (set at 100%)
Protocol: 5-HT2 Functional Assay: Phosphoinositide (PI) Turnover Assay
The relative agonist activity of serotonergic compounds at the 5-HT2 receptor can be determined in vitro using the ability of the compounds to stimulate the production of [^3H]inositol phosphates in [^3H]myo-inositol-labeled A7r5 rat vascular smooth muscle cells by their ability to activate the enzyme phospholipase C. These cells are grown in culture plates, maintained in a humidified atmosphere of 5% CO2 and 95% air and fed semi-weekly with Dulbecco's modified Eagle medium (DMEM) containing 4.5 g/L glucose and supplemented with 2 mM glutamine, 10 μg/ml gentamicin, and 10% fetal bovine serum. For the purpose of conducting the phosphoinositide (PI) turnover experiments, the A7r5 cells are cultured in 24-well plates as previously [J. Pharmacol. Expt. Ther. 286, 411 (1998)]. Confluent cells are exposed for 24-30 hrs to 1.5 μCi [^3H]-myo-inositol (18.3 Ci/mmol) in 0.5 ml of serum-free medium. Cells are then rinsed once with DMEM/F-12 containing 10 mM LiCl prior to incubation with the test agent (or solvent as the control) in 1.0 mL of the same medium for 1 hr at 37° C., after which the medium is aspirated and 1 ml of cold 0.1 M formic acid added to stop the reaction. The chromatographic separation of [^3H]-inositol phosphates ([^3H]-IPs) on an AG-1-X8 column is performed as previously described [J. Pharmacol. Expt. Ther. 286, 411 (1998)] with sequential washes with H2O and 50 mM ammonium formate, followed by elution of the total [^3H]-IPs fraction with 1.2 M ammonium formate containing 0.1 M formic acid. The eluate (4 mL) is collected, mixed with 15 ml scintillation fluid, and the total [^3H]-IPs determined by scintillation counting on a beta-counter. Concentration-response data are analyzed by the sigmoidal fit function of the Origin Scientific Graphics software (Microcal Software, Northampton, Mass.) to determine agonist potency (EC50 value) and efficacy (Emax). Serotonin (5-HT) is used as a positive control (standard) agonist compound and the efficacy of test compounds is compared to that of 5-HT (set at 100%).

| SMILES | Emax (5-HT2A [1]) [%] | melting point [°C] | EC50 (5-HT2A [2]) [nM] | Emax (5-HT2A [2]) [%] | EC50 (5-HT2A [1]) [nM] |
| --- | --- | --- | --- | --- | --- |
| COc1ccc(OC)c(C(O)C(C)N)c1 (stereo not shown) [Compound 1, reference compound] | 9 |  |  |  |  |
| CC[C@H](N)[C@H](O)c1cc(OC)c(Br)cc1OC (as salt: oxalate) [Compound 7, (−)-erythro-(1R,2S)-1-Hydroxy-1-(4-bromo-2,5-dimethoxyphenyl)-2-aminobutane Oxalate] |  | 203 to 205 |  |  |  |
| COc1cc([C@@H](O)[C@H](C)N)c(OC)cc1Br [Compound 9, (−)-erythro-(1R,2S)-1-Hydroxy-1-(4-bromo-2,5-dimethoxyphenyl)-2-aminopropane Hydro-chloride] | 22 |  | 1180 | 68 | 84 |
| COc1cc(C(O)C(C)N)c(OC)cc1Br (single isomer, unassigned; (+)) (as salt: hydrochloride) [Compound 10] |  | 213 to 214 |  |  |  |
| COc1cc([C@@H](O)[C@@H](C)N)c(OC)cc1Br (as salt: hydrochloride) [Compound 11, (−)-threo-(1R,2R)-1-Hydroxy-1-(4-bromo-2,5-dimethoxyphenyl)-2-aminopropane Hydrochloride] |  | 214 to 215 |  |  |  |
| COc1cc([C@H](O)[C@@H](C)N)c(OC)cc1Br [Compound 8, (+)-erythro-(1S,2R)-1-Hydroxy-1-(4-bromo-2,5-dimethoxyphenyl)-2-aminopropane Hydrochloride] | 20 |  | 8000 | 57 |  |
| COc1cc([C@H](OC)[C@@H](C)N)c(OC)cc1Br [Compound 13, (+)-erythro-(1S,2R)-1-Methoxy-1-(4-bromo-2,5-dimethoxyphenyl)-2-aminopropane Oxalate] | 49 |  | 4610 | 117 | 5040 |
| COc1cc([C@@H](O)[C@@H](C)N)c(OC)cc1Br [Compound 11, (−)-threo-(1R,2R)-1-Hydroxy-1-(4-bromo-2,5-dimethoxyphenyl)-2-aminopropane Hydrochloride] | 54 |  | 1130 | 102 | 96.9 |
| COc1cc(C(O)CN)c(OC)cc1Br (stereo not shown) [Compound 6, reference compound] | 7.8 |  |  |  |  |
| COc1cc(C(O)CN)c(OC)cc1CCCc1ccccc1 (racemic) (as salt: hydrochloride) [Compound 5, (±)1-Hydroxy-1-[4-(3-phenylpropyl)-2,5-dimethoxyphenyl]-2-aminoethane Hydrochloride] |  | 174 to 176 |  |  |  |
| COc1cc([C@@H](OC)[C@H](C)N)c(OC)cc1Br [Compound 12, (−)-erythro-(1R,2S)-1-Methoxy-1-(4-bromo-2,5-dimethoxyphenyl)-2-aminopropane Oxalate] | 54 |  | 1080 | 100 | 1330 |
| COc1cc(C(O)C(C)N)c(OC)cc1Br (single isomer, unassigned; (+)) [Compound 10, Hydrochloride] | 16 |  |  | 47 |  |
| COc1cc([C@H](O)[C@@H](C)N)c(OC)cc1Br (as salt: hydrochloride) [Compound 8, (+)-erythro-(1S,2R)-1-Hydroxy-1-(4-bromo-2,5-dimethoxyphenyl)-2-aminopropane Hydrochloride] |  | 194 to 196 |  |  |  |
| COc1cc([C@@H](OC)[C@@H](C)N)c(OC)cc1Br [Compound 14, (−)-thero-(1R,2R)-1-Methoxy-1-(4-bromo-2,5-dimethoxyphenyl)-2-aminopropane Oxalate] | 93 |  | 42.4 | 111 | 126 |
| COc1cc(C(O)CN)c(OC)cc1CCCc1ccccc1 (racemic) [Compound 5, (±)1-Hydroxy-1-[4-(3-phenylpropyl)-2,5-dimethoxyphenyl]-2-aminoethane Hydrochloride, reference compound] | 3.1 |  |  |  |  |
| CC[C@H](N)[C@H](O)c1cc(OC)c(Br)cc1OC [Compound 7, (−)-erythro-(1R,2S)-1-Hydroxy-1-(4-bromo-2,5-dimethoxyphenyl)-2-aminobutane Oxalate, reference compound] | 4.8 |  |  |  |  |
| COc1cc(C(OC)C(C)N)c(OC)cc1Br (single isomer, unassigned; (+)) [Compound 15] | 31 |  |  |  | 1410 |
| COc1cc([C@@H](OC)[C@H](C)N)c(OC)cc1Br (as salt: oxalate) [Compound 12, (−)-erythro-(1R,2S)-1-Methoxy-1-(4-bromo-2,5-dimethoxyphenyl)-2-aminopropane Oxalate] |  | 186 to 188 |  |  |  |
